Laboratory results taken from ChEMBL document CHEMBL1143298, “Second generation 4-(4-methyl-1H-indol-5-ylamino)-2-phenylthieno[2,3-b]pyridine-5-carbonitrile PKCtheta inhibitors” (Bioorg Med Chem Lett, 2009).
≈ marks a conversion by molar mass, not a printed value.

Columns and labels:
[1] = molecular target: Tyrosine-protein kinase Lyn (Homo sapiens, UniProt P07948); assay: Inhibition of Lyn
Homo sapiens = organism: Homo sapiens; assay: Selectivity ratio of IC50 for human full length PKCdelta to IC50 for human full length PKCtheta
[2] = molecular target: Protein kinase C delta type (Homo sapiens, UniProt Q05655); assay: Inhibition of human full length PKCdelta
Sequence of Protein kinase C delta type (Q05655 whole entry): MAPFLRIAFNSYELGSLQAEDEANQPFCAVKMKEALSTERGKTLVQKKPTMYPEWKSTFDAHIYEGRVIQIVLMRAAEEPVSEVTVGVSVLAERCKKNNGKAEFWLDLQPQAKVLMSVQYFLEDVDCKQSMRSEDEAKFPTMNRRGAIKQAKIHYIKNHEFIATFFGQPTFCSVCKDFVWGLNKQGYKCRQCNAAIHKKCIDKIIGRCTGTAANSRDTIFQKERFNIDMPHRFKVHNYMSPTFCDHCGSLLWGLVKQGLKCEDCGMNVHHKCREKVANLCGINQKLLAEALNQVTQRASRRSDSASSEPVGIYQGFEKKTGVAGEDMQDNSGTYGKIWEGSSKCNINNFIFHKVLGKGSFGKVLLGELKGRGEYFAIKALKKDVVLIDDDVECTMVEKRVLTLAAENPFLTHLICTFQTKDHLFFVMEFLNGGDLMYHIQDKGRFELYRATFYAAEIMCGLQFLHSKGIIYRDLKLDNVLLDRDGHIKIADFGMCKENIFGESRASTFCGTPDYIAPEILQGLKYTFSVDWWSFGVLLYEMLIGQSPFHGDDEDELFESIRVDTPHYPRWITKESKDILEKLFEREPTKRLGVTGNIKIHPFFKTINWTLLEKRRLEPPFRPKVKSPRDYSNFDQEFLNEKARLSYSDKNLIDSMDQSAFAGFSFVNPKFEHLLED

[3] = molecular target: Protein kinase C theta type (Homo sapiens, UniProt Q04759); assay: Inhibition of human full length PKCtheta
Sequence of Protein kinase C theta type (Q04759 whole entry): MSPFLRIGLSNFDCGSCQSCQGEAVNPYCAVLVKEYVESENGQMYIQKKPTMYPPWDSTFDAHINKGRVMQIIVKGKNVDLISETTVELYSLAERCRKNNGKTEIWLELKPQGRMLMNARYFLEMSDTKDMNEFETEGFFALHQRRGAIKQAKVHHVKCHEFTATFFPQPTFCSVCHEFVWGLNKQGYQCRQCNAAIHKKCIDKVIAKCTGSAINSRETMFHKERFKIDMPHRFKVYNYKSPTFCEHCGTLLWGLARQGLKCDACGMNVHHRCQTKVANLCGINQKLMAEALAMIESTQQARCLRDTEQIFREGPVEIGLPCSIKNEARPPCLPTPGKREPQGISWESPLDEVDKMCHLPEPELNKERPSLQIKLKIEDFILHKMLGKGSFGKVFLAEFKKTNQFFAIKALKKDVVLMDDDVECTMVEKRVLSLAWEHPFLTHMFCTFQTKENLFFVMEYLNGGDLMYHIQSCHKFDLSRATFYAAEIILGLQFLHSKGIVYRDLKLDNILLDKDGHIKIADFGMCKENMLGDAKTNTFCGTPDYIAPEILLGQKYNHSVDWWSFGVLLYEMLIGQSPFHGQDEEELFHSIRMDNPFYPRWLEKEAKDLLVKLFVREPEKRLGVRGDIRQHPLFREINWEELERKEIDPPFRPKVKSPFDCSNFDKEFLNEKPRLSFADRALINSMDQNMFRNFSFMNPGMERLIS

[4] = molecular target: Protein kinase C beta type (Homo sapiens, UniProt P05771); assay: Inhibition of human full length PKCbeta
[5] = molecular target: Protein kinase C eta type (Homo sapiens, UniProt P24723); assay: Inhibition of human full length PKCeta
[6] = molecular target: T1, Protein kinase C epsilon type (Homo sapiens, UniProt Q02156); assay: Inhibition of human full length PKCepsilon
T1 sequence (Q02156 whole entry): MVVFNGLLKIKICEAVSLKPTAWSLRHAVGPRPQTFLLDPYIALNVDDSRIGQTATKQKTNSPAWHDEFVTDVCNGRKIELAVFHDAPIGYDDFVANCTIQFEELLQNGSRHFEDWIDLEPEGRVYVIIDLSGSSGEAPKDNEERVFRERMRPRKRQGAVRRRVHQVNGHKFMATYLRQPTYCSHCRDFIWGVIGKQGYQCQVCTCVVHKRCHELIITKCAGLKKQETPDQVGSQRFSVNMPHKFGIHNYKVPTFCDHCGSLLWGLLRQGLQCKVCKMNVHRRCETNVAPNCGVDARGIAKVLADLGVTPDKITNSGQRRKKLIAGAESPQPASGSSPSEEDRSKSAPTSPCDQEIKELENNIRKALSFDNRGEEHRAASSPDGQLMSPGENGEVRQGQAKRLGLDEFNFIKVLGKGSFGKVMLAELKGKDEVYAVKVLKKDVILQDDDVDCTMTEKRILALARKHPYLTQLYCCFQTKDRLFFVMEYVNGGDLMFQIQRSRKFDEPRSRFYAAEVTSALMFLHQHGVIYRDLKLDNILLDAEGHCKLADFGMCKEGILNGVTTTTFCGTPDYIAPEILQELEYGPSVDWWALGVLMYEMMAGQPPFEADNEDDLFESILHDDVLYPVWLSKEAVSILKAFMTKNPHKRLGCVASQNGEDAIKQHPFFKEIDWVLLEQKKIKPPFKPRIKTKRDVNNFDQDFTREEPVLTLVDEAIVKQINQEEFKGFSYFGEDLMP

[7] = molecular target: Proto-oncogene tyrosine-protein kinase Src (Homo sapiens, UniProt P12931); assay: Inhibition of Src
Sequence of Proto-oncogene tyrosine-protein kinase Src (P12931 2-536 limits assumed): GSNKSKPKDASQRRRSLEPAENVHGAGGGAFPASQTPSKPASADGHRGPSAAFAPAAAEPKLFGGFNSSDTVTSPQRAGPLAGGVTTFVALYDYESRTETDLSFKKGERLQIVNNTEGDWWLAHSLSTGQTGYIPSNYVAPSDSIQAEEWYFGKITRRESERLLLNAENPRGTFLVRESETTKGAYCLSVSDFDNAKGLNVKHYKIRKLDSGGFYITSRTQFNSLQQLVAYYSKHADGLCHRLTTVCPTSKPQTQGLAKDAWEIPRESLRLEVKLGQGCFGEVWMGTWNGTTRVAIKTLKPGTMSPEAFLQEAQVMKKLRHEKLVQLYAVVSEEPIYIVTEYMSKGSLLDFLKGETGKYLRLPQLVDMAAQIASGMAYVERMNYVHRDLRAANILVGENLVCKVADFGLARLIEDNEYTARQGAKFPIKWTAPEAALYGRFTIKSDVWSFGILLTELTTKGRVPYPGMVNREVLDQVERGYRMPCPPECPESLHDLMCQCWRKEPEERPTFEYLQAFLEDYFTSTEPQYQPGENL

[8] = molecular target: Tyrosine-protein kinase HCK (Homo sapiens, UniProt P08631); assay: Inhibition of Hck
Sequence of Tyrosine-protein kinase HCK (P08631 whole entry): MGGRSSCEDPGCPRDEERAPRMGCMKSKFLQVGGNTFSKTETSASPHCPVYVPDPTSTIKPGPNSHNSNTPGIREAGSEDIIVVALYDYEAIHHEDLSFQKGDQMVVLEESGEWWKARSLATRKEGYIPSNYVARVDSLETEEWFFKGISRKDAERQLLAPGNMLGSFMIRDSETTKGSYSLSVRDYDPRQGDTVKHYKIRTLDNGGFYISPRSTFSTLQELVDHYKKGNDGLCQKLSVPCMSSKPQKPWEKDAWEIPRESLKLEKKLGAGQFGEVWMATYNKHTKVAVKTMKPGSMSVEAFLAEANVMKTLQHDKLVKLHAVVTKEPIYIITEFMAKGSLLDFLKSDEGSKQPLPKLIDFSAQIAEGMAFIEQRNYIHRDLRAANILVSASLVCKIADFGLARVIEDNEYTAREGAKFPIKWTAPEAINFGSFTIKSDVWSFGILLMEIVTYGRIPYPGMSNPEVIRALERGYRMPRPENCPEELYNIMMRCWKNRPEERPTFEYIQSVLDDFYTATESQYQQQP

[9] = molecular target: Tyrosine-protein kinase Fyn (Homo sapiens, UniProt P06241); assay: Inhibition of Fyn
Sequence of Tyrosine-protein kinase Fyn (P06241 whole entry): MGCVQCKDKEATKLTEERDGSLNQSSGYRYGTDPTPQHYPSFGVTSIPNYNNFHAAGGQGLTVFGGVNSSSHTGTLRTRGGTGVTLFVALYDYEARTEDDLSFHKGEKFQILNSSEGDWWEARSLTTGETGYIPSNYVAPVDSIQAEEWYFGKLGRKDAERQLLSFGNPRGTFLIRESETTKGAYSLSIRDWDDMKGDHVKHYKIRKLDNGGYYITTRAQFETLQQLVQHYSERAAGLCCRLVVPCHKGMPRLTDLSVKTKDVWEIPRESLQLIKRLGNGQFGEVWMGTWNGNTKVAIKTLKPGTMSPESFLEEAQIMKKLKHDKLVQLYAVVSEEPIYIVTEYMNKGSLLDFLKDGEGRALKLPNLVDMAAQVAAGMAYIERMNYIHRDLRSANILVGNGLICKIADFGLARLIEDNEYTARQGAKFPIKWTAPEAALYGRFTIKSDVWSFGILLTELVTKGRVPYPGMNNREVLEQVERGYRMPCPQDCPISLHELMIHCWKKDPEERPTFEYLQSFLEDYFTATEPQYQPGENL

[10] = Inhibition of VEGFR
[11] = Inhibition of PDGFR
[12] = molecular target: MAP kinase-activated protein kinase 2 (Homo sapiens, UniProt P49137); assay: Inhibition of MK2
Sequence of MAP kinase-activated protein kinase 2 (P49137 whole entry): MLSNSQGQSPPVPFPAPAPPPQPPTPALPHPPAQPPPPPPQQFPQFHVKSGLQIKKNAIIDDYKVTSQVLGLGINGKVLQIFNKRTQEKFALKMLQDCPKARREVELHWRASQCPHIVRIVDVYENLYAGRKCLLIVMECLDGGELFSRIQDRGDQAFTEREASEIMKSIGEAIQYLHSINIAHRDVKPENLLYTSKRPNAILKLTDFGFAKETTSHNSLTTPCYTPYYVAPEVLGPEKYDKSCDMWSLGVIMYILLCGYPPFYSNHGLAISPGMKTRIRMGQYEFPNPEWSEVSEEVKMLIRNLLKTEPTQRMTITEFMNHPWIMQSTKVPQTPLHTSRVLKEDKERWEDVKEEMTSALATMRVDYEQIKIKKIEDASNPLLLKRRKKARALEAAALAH

[13] = Inhibition of p38
[14] = Membrane permeability by PAMPA; type: ADME; conditions: read-out: permeability
[15] = Solubility at pH 7.4; type: physicochemical; conditions: buffer
[16] = Metabolic stability in mouse liver microsomes; type: ADME, Microsome
[17] = Metabolic stability in rat liver microsomes; type: ADME, Microsome
[18] = Metabolic stability in human liver microsomes; type: ADME, Microsome
[19] = molecular target: Tyrosine-protein kinase Lck (Homo sapiens, UniProt P06239)
Sequence of Tyrosine-protein kinase Lck (P06239 whole entry): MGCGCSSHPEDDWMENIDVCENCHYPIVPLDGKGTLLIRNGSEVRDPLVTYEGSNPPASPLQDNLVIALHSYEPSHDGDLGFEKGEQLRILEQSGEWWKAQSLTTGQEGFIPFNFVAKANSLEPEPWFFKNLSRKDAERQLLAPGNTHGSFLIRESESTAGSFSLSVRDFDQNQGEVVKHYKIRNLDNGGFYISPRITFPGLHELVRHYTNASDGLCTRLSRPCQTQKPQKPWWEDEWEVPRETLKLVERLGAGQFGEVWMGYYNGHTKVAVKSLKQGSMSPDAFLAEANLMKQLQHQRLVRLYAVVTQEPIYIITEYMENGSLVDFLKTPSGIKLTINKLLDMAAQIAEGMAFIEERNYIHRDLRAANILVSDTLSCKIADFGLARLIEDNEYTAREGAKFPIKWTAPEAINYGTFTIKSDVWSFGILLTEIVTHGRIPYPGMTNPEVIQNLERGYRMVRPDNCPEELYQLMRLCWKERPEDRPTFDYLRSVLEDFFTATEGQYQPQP

Sequence of Tyrosine-protein kinase Lyn (P07948 whole entry): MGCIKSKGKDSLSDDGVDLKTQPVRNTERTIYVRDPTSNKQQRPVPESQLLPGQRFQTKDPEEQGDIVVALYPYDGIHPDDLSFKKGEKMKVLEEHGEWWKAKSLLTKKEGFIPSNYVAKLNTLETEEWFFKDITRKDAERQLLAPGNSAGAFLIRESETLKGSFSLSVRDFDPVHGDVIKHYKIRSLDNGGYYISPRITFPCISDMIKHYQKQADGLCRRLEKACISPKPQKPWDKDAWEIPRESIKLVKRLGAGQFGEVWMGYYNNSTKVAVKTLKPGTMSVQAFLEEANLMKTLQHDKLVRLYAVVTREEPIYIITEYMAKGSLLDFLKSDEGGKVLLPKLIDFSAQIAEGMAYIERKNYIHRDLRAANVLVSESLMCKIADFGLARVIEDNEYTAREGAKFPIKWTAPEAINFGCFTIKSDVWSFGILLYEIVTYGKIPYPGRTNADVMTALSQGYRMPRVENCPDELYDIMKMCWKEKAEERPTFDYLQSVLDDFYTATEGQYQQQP

SMILES | IC50 [1] | Ratio IC50 (Homo sapiens) | IC50 [2] | IC50 [3] | other results
Cc1ccc(CN(C)C)cc1-c1cc2c(Nc3ccc4[nH]ccc4c3C)c(C#N)cnc2s1 | 230 nM | 4 | 410 nM | – | –
Cc1c(Nc2c(C#N)cnc3sc(-c4csc(CN(C)C)c4)cc23)ccc2[nH]ccc12 | 410 nM | – | 51 nM | – | –
N#Cc1cnc2sc(-c3ccccc3)cc2c1Nc1ccc2[nH]ccc2c1 | – | – | – | 52 nM | –
COc1ccccc1-c1cc2c(Nc3ccc4[nH]ccc4c3C)c(C#N)cnc2s1 | 310 nM | 10 | 250 nM | 23 nM | –
CCOc1ccc(CN(C)C)cc1-c1cc2c(Nc3ccc4[nH]ccc4c3C)c(C#N)cnc2s1 | 74 nM | 9 | 82 nM | 9.2 nM | –
Cc1c(Nc2c(C#N)cnc3sc(-c4ccccc4CN(C)C)cc23)ccc2[nH]ccc12 | 37000 nM | – | 380 nM | – | –
Cc1c(Nc2c(C#N)cnc3sc(-c4ccc(CN(C)C)cc4)cc23)ccc2[nH]ccc12 | 100 nM | – | 88 nM | – | –
COc1ccc(CN(C)C)c(-c2cc3c(Nc4ccc5[nH]ccc5c4C)c(C#N)cnc3s2)c1 | 13000 nM | – | 130 nM | – | IC50 [4]: 22000 nM; IC50 [5]: 360 nM; IC50 [6]: 95 nM; IC50 [7]: > 5000 nM; IC50 [8]: > 5000 nM; IC50 [9]: > 5000 nM; IC50 [10]: > 5000 nM; IC50 [11]: > 5000 nM; IC50 [12]: > 5000 nM; IC50 [13]: > 5000 nM; Papp [14]: 1.04 ×10⁻⁶ cm/s; solubility [15]: 12 µg/mL (≈ 25.7 µM); half-life [16]: < 10 min; half-life [17]: < 10 min; half-life [18]: < 10 min
COc1c(CN(C)C)cccc1-c1cc2c(Nc3ccc4[nH]ccc4c3C)c(C#N)cnc2s1 | 1700 nM | 2 | 27 nM | – | –
COc1ccc(CN(C)C)cc1-c1cc2c(Nc3ccc4[nH]ccc4c3C)c(C#N)cnc2s1 | 23 nM | – | 24 nM | 8.7 nM | IC50 [19]: 6 nM
Cc1c(Nc2c(C#N)cnc3sc(-c4cncc(CN(C)C)c4)cc23)ccc2[nH]ccc12 | 2200 nM | – | 170 nM | 84 nM | –
Cc1c(Nc2c(C#N)cnc3sc(-c4cccc(CN(C)C)c4)cc23)ccc2[nH]ccc12 | 520 nM | 4 | – | – | –
